# Reference: patent US6992079B2, “Substituted 11-phenyl-dibenzazepine compounds useful for the treatment or prevention of diseases characterized by abnormal cell proliferation” (President Fellows of Harvard College, priority 1997, dated 2006)
# Tests used:
# Format in all cases: cell-based
# KM12 = assay: In-Vitro Testing SRB panel: Colon Cancer; conditions: KM12, 48 h
# LOX IMVI = assay: In-Vitro Testing SRB panel: Melanoma; conditions: 48 h
# M14 = assay: In-Vitro Testing SRB panel: Melanoma; conditions: M14, 48 h
# SK-MEL-2 = assay: In-Vitro Testing SRB panel: Melanoma; conditions: SK-MEL-2, 48 h
# A498 = assay: In-Vitro Testing SRB panel: Renal Cancer; conditions: A498, 48 h
# RXF 393 = assay: In-Vitro Testing SRB panel: Renal Cancer; conditions: RXF 393, 48 h
# [1] = In-Vitro Testing SRB panel: Renal Cancer; conditions: 48 h
# BT-549 = assay: In-Vitro Testing SRB panel: Breast Cancer; conditions: BT-549, 48 h
# [2] = Homo sapiens, read-out: LC50 (the source's name)
structure (smiles),measurement,setting,value
"O=C(c1ccc([N+](=O)[O-])cc1)N1Cc2ccccc2C(c2ccccc2Cl)c2ccccc21 (stereo not shown) [Compound 28, N-(4′-Nitrobenzoyl)-11-(2′-chlorophenyl)-5,6-dihydro-11H-dibenz[b,e]azepine]",Percent Growth,KM12; log10 conc −4.0 Molar,15%
same,Percent Growth,KM12; log10 conc −5.0 Molar,26%
same,Percent Growth,KM12; log10 conc −6.0 Molar,45%
same,Percent Growth,KM12; log10 conc −7.0 Molar,84%
same,Percent Growth,KM12; log10 conc −8.0 Molar,94%
same,TGI,LOX IMVI,>1.00E−04 Molar
same,GI50,LOX IMVI; Homo sapiens,0.382 µM
same,CC50,LOX IMVI; [2],> 100 µM
same,Percent Growth,LOX IMVI; log10 conc −4.0 Molar,9%
same,Percent Growth,LOX IMVI; log10 conc −5.0 Molar,8%
same,Percent Growth,LOX IMVI; log10 conc −6.0 Molar,19%
same,Percent Growth,LOX IMVI; log10 conc −7.0 Molar,93%
same,Percent Growth,LOX IMVI; log10 conc −8.0 Molar,103%
same,GI50,M14; Homo sapiens,0.941 µM
same,CC50,M14; [2],> 100 µM
same,TGI,M14,2.19E−05 Molar
same,Percent Growth,M14; log10 conc −4.0 Molar,−32%
same,Percent Growth,M14; log10 conc −5.0 Molar,16%
same,Percent Growth,M14; log10 conc −6.0 Molar,49%
same,Percent Growth,M14; log10 conc −7.0 Molar,85%
same,Percent Growth,M14; log10 conc −8.0 Molar,94%
same,GI50,SK-MEL-2; Homo sapiens,1.76 µM
same,CC50,SK-MEL-2; [2],> 100 µM
same,TGI,SK-MEL-2,1.10E−05 Molar
same,Percent Growth,SK-MEL-2; log10 conc −4.0 Molar,−31%
same,Percent Growth,SK-MEL-2; log10 conc −5.0 Molar,1%
same,Percent Growth,SK-MEL-2; log10 conc −6.0 Molar,66%
same,Percent Growth,SK-MEL-2; log10 conc −7.0 Molar,95%
same,Percent Growth,SK-MEL-2; log10 conc −8.0 Molar,107%
same,TGI,A498,>1.00E−04 Molar
same,Percent Growth,A498; log10 conc −4.0 Molar,15%
same,Percent Growth,A498; log10 conc −5.0 Molar,57%
same,Percent Growth,A498; log10 conc −6.0 Molar,81%
same,Percent Growth,A498; log10 conc −7.0 Molar,93%
same,Percent Growth,A498; log10 conc −8.0 Molar,97%
same,GI50,A498; Homo sapiens,14.4 µM
same,CC50,A498; [2],> 100 µM
same,GI50,RXF 393; Homo sapiens,1.39 µM
same,CC50,RXF 393; [2],> 100 µM
same,TGI,RXF 393,7.75E−06 Molar
same,Percent Growth,RXF 393; log10 conc −4.0 Molar,−12%
same,Percent Growth,RXF 393; log10 conc −5.0 Molar,−7%
same,Percent Growth,RXF 393; log10 conc −6.0 Molar,60%
same,Percent Growth,RXF 393; log10 conc −7.0 Molar,98%
same,Percent Growth,RXF 393; log10 conc −8.0 Molar,99%
same,TGI,[1]; DO-31,>1.00E−04 Molar
same,Percent Growth,"[1]; DO-31, log10 conc −4.0 Molar",14%
same,Percent Growth,"[1]; DO-31, log10 conc −5.0 Molar",28%
same,Percent Growth,"[1]; DO-31, log10 conc −6.0 Molar",56%
same,Percent Growth,"[1]; DO-31, log10 conc −7.0 Molar",111%
same,Percent Growth,"[1]; DO-31, log10 conc −8.0 Molar",105%
same,GI50,[1]; Homo sapiens,1.69 µM
same,CC50,"[1]; Homo sapiens, DO-31, read-out: LC50 (the source's name)",> 100 µM
same,TGI,BT-549,>1.00E−04 Molar
same,Percent Growth,BT-549; log10 conc −4.0 Molar,34%
same,Percent Growth,BT-549; log10 conc −5.0 Molar,46%
same,Percent Growth,BT-549; log10 conc −6.0 Molar,70%
same,Percent Growth,BT-549; log10 conc −7.0 Molar,87%
same,Percent Growth,BT-549; log10 conc −8.0 Molar,98%
same,GI50,BT-549; Homo sapiens,6.7 µM
same,CC50,BT-549; [2],> 100 µM
